Measured values published in US20230079819A1, “COMPOUNDS AND USES THEREOF” (Foghorn Therapeutics Inc., priority 2019, published 2023).

Key:
BRM = target: T1, BRM (Homo sapiens, UniProt P51531); experiment: ATPase catalytic activity of BRM, ADP-Glo in vitro biochemical assay; conditions: ATPase catalytic activity, 30 nM BRM, 400 μM ATP, read-out: BRM IP50 (μM)*
T1 construct: made in house; host or cells: High Five insect cells

BRG-1 = target: T2, BRG-1 (Homo sapiens, UniProt P51532); experiment: ATPase catalytic activity of BRG-1, ADP-Glo in vitro biochemical assay; conditions: ATPase catalytic activity, 30 nM BRG-1, 400 μM ATP, read-out: BRG1 IP50 (μM)*
T2 construct: made in house; host or cells: High Five insect cells
T2 sequence (P51532 whole entry): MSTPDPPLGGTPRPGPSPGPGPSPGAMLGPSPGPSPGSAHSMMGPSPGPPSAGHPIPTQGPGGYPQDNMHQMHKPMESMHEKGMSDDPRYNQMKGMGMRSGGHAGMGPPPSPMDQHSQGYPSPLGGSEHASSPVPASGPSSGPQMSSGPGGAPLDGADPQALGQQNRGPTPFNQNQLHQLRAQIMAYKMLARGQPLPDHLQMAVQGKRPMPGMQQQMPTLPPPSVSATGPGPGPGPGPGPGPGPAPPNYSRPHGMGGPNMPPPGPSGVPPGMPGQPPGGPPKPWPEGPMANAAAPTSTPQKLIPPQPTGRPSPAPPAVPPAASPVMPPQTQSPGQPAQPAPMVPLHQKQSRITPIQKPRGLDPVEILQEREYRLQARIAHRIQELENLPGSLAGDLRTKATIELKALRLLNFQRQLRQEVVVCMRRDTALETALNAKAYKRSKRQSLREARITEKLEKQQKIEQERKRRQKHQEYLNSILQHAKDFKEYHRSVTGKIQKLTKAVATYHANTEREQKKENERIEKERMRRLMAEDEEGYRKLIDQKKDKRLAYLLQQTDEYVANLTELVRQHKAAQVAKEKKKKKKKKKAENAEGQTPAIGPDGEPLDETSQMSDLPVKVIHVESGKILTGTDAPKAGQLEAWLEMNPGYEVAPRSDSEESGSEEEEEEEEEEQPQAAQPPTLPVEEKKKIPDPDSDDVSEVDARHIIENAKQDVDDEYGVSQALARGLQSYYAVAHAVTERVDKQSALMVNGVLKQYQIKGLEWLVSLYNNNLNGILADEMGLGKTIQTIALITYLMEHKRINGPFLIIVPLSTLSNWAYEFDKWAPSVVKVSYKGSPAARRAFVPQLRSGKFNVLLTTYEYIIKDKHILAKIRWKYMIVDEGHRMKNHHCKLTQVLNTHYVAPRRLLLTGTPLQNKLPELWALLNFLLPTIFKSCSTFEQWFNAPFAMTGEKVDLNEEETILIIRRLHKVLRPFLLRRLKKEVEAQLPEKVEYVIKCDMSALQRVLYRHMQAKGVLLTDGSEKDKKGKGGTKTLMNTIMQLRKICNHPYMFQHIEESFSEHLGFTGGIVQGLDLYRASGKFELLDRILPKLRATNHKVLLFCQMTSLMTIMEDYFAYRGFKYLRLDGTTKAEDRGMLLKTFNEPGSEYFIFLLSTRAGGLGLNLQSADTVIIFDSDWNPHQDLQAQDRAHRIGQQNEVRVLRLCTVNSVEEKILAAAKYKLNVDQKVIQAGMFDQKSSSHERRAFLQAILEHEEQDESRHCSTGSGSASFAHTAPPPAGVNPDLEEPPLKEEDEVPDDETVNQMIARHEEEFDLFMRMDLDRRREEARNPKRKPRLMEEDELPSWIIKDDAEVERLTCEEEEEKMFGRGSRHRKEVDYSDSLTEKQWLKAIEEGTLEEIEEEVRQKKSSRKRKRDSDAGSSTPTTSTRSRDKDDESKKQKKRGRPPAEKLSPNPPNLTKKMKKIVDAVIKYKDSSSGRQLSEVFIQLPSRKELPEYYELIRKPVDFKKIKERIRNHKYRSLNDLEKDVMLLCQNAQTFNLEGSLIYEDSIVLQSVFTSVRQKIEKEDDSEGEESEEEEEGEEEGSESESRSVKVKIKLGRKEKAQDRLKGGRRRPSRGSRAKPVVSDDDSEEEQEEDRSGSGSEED

T1 sequence (P51531 whole entry): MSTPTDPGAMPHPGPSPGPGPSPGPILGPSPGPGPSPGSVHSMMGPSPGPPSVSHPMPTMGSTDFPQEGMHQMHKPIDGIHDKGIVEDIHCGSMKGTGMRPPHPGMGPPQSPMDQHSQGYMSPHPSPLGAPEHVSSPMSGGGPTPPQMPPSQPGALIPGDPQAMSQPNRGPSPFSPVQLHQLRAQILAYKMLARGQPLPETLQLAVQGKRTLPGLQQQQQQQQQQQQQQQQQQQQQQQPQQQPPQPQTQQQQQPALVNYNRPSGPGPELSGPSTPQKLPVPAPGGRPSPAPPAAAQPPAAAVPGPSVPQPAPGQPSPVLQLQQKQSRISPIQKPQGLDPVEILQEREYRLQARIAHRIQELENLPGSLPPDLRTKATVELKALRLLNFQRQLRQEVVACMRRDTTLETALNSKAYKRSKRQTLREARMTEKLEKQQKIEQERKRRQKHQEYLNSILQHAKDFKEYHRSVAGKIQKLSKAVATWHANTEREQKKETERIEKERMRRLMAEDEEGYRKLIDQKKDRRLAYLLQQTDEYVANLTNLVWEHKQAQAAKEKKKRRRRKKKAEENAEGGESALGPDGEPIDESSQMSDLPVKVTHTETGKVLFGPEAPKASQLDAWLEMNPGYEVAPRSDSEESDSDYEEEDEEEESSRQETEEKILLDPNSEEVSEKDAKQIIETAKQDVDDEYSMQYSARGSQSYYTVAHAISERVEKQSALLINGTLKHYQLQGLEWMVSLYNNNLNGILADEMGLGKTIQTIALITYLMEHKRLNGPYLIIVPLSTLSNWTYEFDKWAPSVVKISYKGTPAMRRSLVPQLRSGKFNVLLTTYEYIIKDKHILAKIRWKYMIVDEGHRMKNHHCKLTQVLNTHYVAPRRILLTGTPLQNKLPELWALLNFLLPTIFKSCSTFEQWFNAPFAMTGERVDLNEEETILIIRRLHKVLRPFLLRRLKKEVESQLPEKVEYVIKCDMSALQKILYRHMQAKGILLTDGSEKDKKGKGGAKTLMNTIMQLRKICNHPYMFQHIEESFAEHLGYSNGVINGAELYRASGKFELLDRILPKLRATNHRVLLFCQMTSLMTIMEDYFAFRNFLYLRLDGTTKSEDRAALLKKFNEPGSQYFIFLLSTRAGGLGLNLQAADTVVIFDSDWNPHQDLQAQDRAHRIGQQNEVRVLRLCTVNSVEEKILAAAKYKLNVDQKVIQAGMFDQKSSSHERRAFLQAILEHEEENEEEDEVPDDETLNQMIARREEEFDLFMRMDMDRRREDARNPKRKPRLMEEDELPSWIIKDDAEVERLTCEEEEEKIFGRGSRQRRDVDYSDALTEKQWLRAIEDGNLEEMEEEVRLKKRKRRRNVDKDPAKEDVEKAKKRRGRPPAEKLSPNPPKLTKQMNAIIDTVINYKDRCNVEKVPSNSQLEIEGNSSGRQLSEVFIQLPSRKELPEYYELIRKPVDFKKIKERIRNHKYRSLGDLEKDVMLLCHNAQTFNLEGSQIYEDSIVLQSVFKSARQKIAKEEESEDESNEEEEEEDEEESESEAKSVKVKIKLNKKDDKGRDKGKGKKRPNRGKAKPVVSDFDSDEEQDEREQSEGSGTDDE

Structure (SMILES)	IC50 (BRM)	IC50 (BRG-1)
CS(=O)(=O)n1ccc(C(=O)NCC(=O)Nc2nc(-c3cccc(COc4ccccn4)c3)cs2)c1 [Compound 107, 1-(methylsulfonyl)-N-(2-oxo-2-((4-(3-((pyridin-2-yloxy)methyl)phenyl)thiazol-2-yl)amino)ethyl)-1H-pyrrole-3-carboxamide]	> 0.01 µM	> 0.01 µM
Cn1ccc2ccc(-c3csc(NC(=O)CNC(=O)c4ccn(S(C)(=O)=O)c4)n3)cc2c1=O [Compound 112, N-(2-((4-(2-methyl-1-oxo-1,2-dihydroisoquinolin-7-yl)thiazol-2-yl)amino)-2-oxoethyl)-1-(methylsulfonyl)-1H-pyrrole-3-carboxamide]	< 0.01 µM	< 0.01 µM
CN(C(=O)c1cccc(-c2csc(NC(=O)CNC(=O)c3ccn(S(C)(=O)=O)c3)n2)c1)c1ccccc1 [Compound 116, N-(2-((4-(3-(methyl(phenyl)carbamoyl)phenyl)thiazol-2-yl)amino)-2-oxoethyl)-1-(methylsulfonyl)-1H-pyrrole-3-carboxamide]	> 1 µM	> 1 µM
CN1CC(OCc2cccc(-c3csc(NC(=O)CNC(=O)c4ccn(C(C)(C)C)c4)n3)c2)C1 [Compound 118, 1-(tert-butyl)-N-(2-((4-(3-(((1-methylazetidin-3-yl)oxy)methyl)phenyl)thiazol-2-yl)amino)-2-oxoethyl)-1H-pyrrole-3-carboxamide]	> 1 µM	> 1 µM
Cn1ccc(OCc2cccc(-c3csc(NC(=O)CNC(=O)c4ccn(C(C)(C)C)c4)n3)c2)n1 [Compound 119, 1-(tert-butyl)-N-(2-((4-(3-(((1-methyl-1H-pyrazol-3-yl)oxy)methyl)phenyl)thiazol-2-yl)amino)-2-oxoethyl)-1H-pyrrole-3-carboxamide]	> 0.01 µM	> 0.1 µM
COc1cccc(-c2csc(NC(=O)CNC(=O)c3ccn(C(C)(C)C)c3)n2)c1 [Compound 120, 1-(tert-butyl)-N-(2-((4-(3-methoxyphenyl)thiazol-2-yl)amino)-2-oxoethyl)-1H-pyrrole-3-carboxamide]	> 0.01 µM	> 0.1 µM
CC(C)(C)n1ccc(C(=O)NCC(=O)Nc2nc(-c3cccc(OCC4COC4)c3)cs2)c1 [Compound 122, 1-(tert-butyl)-N-(2-((4-(3-(oxetan-3-ylmethoxy)phenyl)thiazol-2-yl)amino)-2-oxoethyl)-1H-pyrrole-3-carboxamide]	> 0.01 µM	> 0.01 µM
Cn1ccc2ccc(-c3csc(NC(=O)CNC(=O)c4ccn(C(C)(C)C)c4)n3)cc2c1=O [Compound 123, 1-(tert-butyl)-N-(2-((4-(2-methyl-1-oxo-1,2-dihydroisoquinolin-7-yl)thiazol-2-yl)amino)-2-oxoethyl)-1H-pyrrole-3-carboxamide]	< 0.01 µM	> 0.01 µM
CN1Cc2ccc(-c3csc(NC(=O)CNC(=O)c4ccn(C(C)(C)C)c4)n3)cc2CC1=O [Compound 124, 1-(tert-butyl)-N-(2-((4-(2-methyl-3-oxo-1,2,3,4-tetrahydroisoquinolin-6-yl)thiazol-2-yl)amino)-2-oxoethyl)-1H-pyrrole-3-carboxamide]	> 0.01 µM	> 0.1 µM
CC(C)(C)n1ccc(C(=O)NCC(=O)Nc2nc(-c3cccc(COC4CCOCC4)c3)cs2)c1 [Compound 125, 1-(tert-butyl)-N-(2-oxo-2-((4-(3-(((tetrahydro-2H-pyran-4-yl)oxy)methyl)phenyl)thiazol-2-yl)amino)ethyl)-1H-pyrrole-3-carboxamide]	> 0.01 µM	> 0.01 µM

Now from value to compound:

IC50 (BRM)	IC50 (BRG-1)	Structure (SMILES)
> 0.01 µM	< 0.01 µM	CS(=O)(=O)n1ccc(C(=O)NCC(=O)Nc2nc(-c3cccc(CO[C@H]4CC[C@H](O)CC4)c3)cs2)c1 [Compound 105, N-(2-((4-(3-((((1R,4R)-4-hydroxycyclohexyl)oxy)methyl)phenyl)thiazol-2-yl)amino)-2-oxoethyl)-1-(methylsulfonyl)-1H-pyrrole-3-carboxamide]
< 0.01 µM	< 0.01 µM	CS(=O)(=O)n1ccc(C(=O)NCC(=O)Nc2nc(-c3cccc(OCc4ccncc4)c3)cs2)c1 [Compound 106, 1-(methylsulfonyl)-N-(2-oxo-2-((4-(3-(pyridin-4-ylmethoxy)phenyl)thiazol-2-yl)amino)ethyl)-1H-pyrrole-3-carboxamide]
< 0.01 µM	> 0.01 µM	CS(=O)(=O)n1ccc(C(=O)NCC(=O)Nc2nc(-c3cccc(COc4ccncc4)c3)cs2)c1 [Compound 108, 1-(methylsulfonyl)-N-(2-oxo-2-((4-(3-((pyridin-4-yloxy)methyl)phenyl)thiazol-2-yl)amino)ethyl)-1H-pyrrole-3-carboxamide]
> 0.01 µM	> 0.01 µM	CN1Cc2ccc(-c3csc(NC(=O)CNC(=O)c4ccn(S(C)(=O)=O)c4)n3)cc2CC1=O [Compound 109, N-(2-((4-(2-methyl-3-oxo-1,2,3,4-tetrahydroisoquinolin-6-yl)thiazol-2-yl)amino)-2-oxoethyl)-1-(methylsulfonyl)-1H-pyrrole-3-carboxamide]
> 0.01 µM	> 0.01 µM	CS(=O)(=O)n1ccc(C(=O)NCC(=O)Nc2nc(-c3cccc(OCC4COC4)c3)cs2)c1 [Compound 110, 1-(methylsulfonyl)-N-(2-((4-(3-(oxetan-3-ylmethoxy)phenyl)thiazol-2-yl)amino)-2-oxoethyl)-1H-pyrrole-3-carboxamide]
> 0.1 µM	> 0.1 µM	CS(=O)(=O)n1ccc(C(=O)NCC(=O)Nc2nc(C3CCCN(c4ccncc4)C3)cs2)c1 (stereo not drawn) [Compound 111]
> 0.1 µM	> 0.1 µM	CS(=O)(=O)n1ccc(C(=O)NCC(=O)Nc2nc(-c3ccn(-c4ccncc4)n3)cs2)c1 [Compound 113, 1-(methylsulfonyl)-N-(2-oxo-2-((4-(1-(pyridin-4-yl)-1H-pyrazol-3-yl)thiazol-2-yl)amino)ethyl)-1H-pyrrole-3-carboxamide]
> 0.1 µM	> 0.1 µM	CS(=O)(=O)n1ccc(C(=O)NCC(=O)Nc2nc(-c3cccc(C4CCN(CC(F)(F)F)CC4)c3)cs2)c1 [Compound 114, 1-(methylsulfonyl)-N-(2-oxo-2-((4-(3-(1-(2,2,2-trifluoroethyl)piperidin-4-yl)phenyl)thiazol-2-yl)amino)ethyl)-1H-pyrrole-3-carboxamide]
> 0.1 µM	> 0.1 µM	Cc1nccn1-c1cccc(-c2csc(NC(=O)CNC(=O)c3ccn(S(C)(=O)=O)c3)n2)c1 [Compound 115, N-(2-((4-(3-(2-methyl-1H-imidazol-1-yl)phenyl)thiazol-2-yl)amino)-2-oxoethyl)-1-(methylsulfonyl)-1H-pyrrole-3-carboxamide]
> 0.01 µM	> 0.01 µM	CS(=O)(=O)n1ccc(C(=O)NCC(=O)Nc2nc(-c3cccc(C(=O)Nc4ccncc4)c3)cs2)c1 [Compound 117, 1-(methylsulfonyl)-N-(2-oxo-2-((4-(3-(pyridin-4-ylcarbamoyl)phenyl)thiazol-2-yl)amino)ethyl)-1H-pyrrole-3-carboxamide]
> 0.01 µM	> 0.01 µM	COc1cccc(-c2csc(NC(=O)CNC(=O)c3ccn(S(C)(=O)=O)c3)n2)c1 [Compound 121, N-(2-((4-(3-methoxyphenyl)thiazol-2-yl)amino)-2-oxoethyl)-1-(methylsulfonyl)-1H-pyrrole-3-carboxamide]
